Measured values as given in patent US20140370521A1, “IDENTIFICATION OF TWO NOVEL BIOMARKERS FOR NIEMANN-PICK DISEASE TYPE C” (The USA , as Represented by the Secretary, Department of …, priority 2011, published 2014).
Entries after “also recorded” stand apart in the source; their conditions may differ.

What was measured:
[1] = system: galectin-3 (LGALS3); assay: Serum galectin-3 (LGALS3) by ELISA in NPC1 patients treated or not with miglustat; format: in vivo, human
Description: (§1) Since 60% of the patients were being treated with off-label miglustat, the effect of treatment on LGALS3 or CTSD concentrations were investigated. […] Since individual responses could be masked by the large degree of variation between patients, LGALS3 and CTSD concentrations were also assessed in serum samples from six patients before and after they begin the treatment.
(§2) The study was approved by the Eunice Kennedy Shriver National Institute of Child Health and Human Development Institutional Review Board. Informed consent and, when appropriate, assent were obtained. Serum samples were obtained from 16 male and 14 female NPC1 patients participating in a Natural History trial (06-CH-0186) and 16 control individuals of similar age and gender distribution. Mean age of patients and controls were 7.9±5.8 years old and 9.1±4.2 years old respectively (P-value=0.3720). Phenotypic severity was determined using the severity scale developed by Yanjanin et al., Am. J. Med. Genet. B. Neuropsychiatr. Genet. 153B:132-40 (2010), and ranged from 0 to 40. […]
(§3) Serum levels of cathepsin D (CTSD; EMD Millipore, Billerica, Mass.), and galectin-3 (LGALS3; R&D systems, Minneapolis, Minn.) were measured in triplicate by ELISA, following manufacturers' instructions. […]

[2] = system: cathepsin D (CTSD); assay: Serum cathepsin D (CTSD) by ELISA in NPC1 patients treated or not with miglustat; format: in vivo, human
Description: as §1, §2, §3

[3] = NPC patients; Patterson et al., Lancet Neurol. 6:765-72 (2007); cited from earlier work

Structure (SMILES): CCCCN1C[C@H](O)[C@@H](O)[C@H](O)[C@H]1CO [miglustat]
- LGALS3 concentrations in serum of NPC patients treated or not with miglustat ([1]; NPC1 patients, off-label miglustat versus untreated group, serum, FIG. 7B): No statistical difference; also recorded: no significant differences
- Effect of miglustat treatment on LGALS3 level, before versus after start of treatment ([1]; six patients, serum samples before and after beginning treatment, FIG. 7D): did not have any effect
- CTSD concentrations in serum of NPC patients treated or not with miglustat ([2]; NPC1 patients, off-label miglustat versus untreated group, serum, FIG. 7C): No statistical difference; also recorded: no significant differences
- Effect of miglustat treatment on CTSD level, before versus after start of treatment ([2]; six patients, serum samples before and after beginning treatment, FIG. 7E): did not have any effect
- Efficacy in slowing the neurological progression of the disease [3]: has shown efficacy in slowing the neurological progression of the disease
